Test results: PubChem BioAssay AID330 (DTP/NCI, 2004)
Several values for one entry are separate records, joined by “and”; a condition that tells them apart may be missing. Equal values may be shown once. Toxic doses and inconclusive results are not listed. The calls were made as follows: active = survival T/C of 150% or more; inactive = T/C below 125% in these data.

Test system: P388 leukemia ip, CD2F1 mice, survival T/C
Test: NCI In Vivo Anticancer Drug Screen. Data for tumor model P388 Leukemia (intraperitoneal) in CD2F1 (CDF1) mice
Conditions: endpoint: median survival time, higher = longer survival
Summary of the method: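 Mice carrying the transplanted tumor received test compound or vehicle. Survival was recorded in each group, and the value is the treated-group measurement divided by that of the vehicle-treated control group.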

[1] = dose: 100.0 mg/kg/injection, schedule: Q01DX009 (ip), vehicle: saline with Tween-80
[2] = dose: 200.0 mg/kg/injection, schedule: Q01DX009 (ip), vehicle: saline with Tween-80
[3] = dose: 200.0 mg/kg/injection, schedule: Q04DX003 (ip), vehicle: saline with Tween-80
[4] = dose: 400.0 mg/kg/injection, schedule: Q04DX003 (ip), vehicle: saline with Tween-80
[5] = dose: 25.0 mg/kg/injection, schedule: Q01DX009 (ip), vehicle: saline with Tween-80
[6] = dose: 50.0 mg/kg/injection, schedule: Q01DX009 (ip), vehicle: saline with Tween-80
[7] = dose: 60.0 mg/kg/injection, schedule: Q01DX005 (ip), vehicle: saline with Tween-80
[8] = dose: 120.0 mg/kg/injection, schedule: Q01DX005 (ip), vehicle: saline with Tween-80
[9] = dose: 240.0 mg/kg/injection, schedule: Q01DX005 (ip), vehicle: saline with Tween-80
[10] = dose: 100.0 mg/kg/injection, schedule: Q04DX002 (ip), vehicle: Klucel (hydroxypropylcellulose) (HPC)
[11] = dose: 200.0 mg/kg/injection, schedule: Q04DX002 (ip), vehicle: Klucel (hydroxypropylcellulose) (HPC)
[12] = dose: 400.0 mg/kg/injection, schedule: Q04DX002 (ip), vehicle: Klucel (hydroxypropylcellulose) (HPC)
[13] = dose: 60.0 mg/kg/injection, schedule: Q01DX005 (ip), vehicle: Klucel (hydroxypropylcellulose) (HPC)
[14] = dose: 120.0 mg/kg/injection, schedule: Q01DX005 (ip), vehicle: Klucel (hydroxypropylcellulose) (HPC)
[15] = dose: 240.0 mg/kg/injection, schedule: Q01DX005 (ip), vehicle: Klucel (hydroxypropylcellulose) (HPC)
[16] = dose: 50.0 mg/kg/injection, schedule: Q01DX005 (ip), vehicle: Klucel (hydroxypropylcellulose) (HPC)
[17] = dose: 100.0 mg/kg/injection, schedule: Q01DX005 (ip), vehicle: Klucel (hydroxypropylcellulose) (HPC)
[18] = dose: 200.0 mg/kg/injection, schedule: Q01DX005 (ip), vehicle: Klucel (hydroxypropylcellulose) (HPC)

Measured: T/C

CC(=O)OCC(=O)[C@@]1(O)CC[C@H]2[C@@H]3CCC4=CC(=O)CC[C@]4(C)[C@@]3(Cl)[C@@H](O)C[C@@]21C
inactive: dose: 88.0 mg/kg/injection, schedule: Q04DX003 (ip), vehicle: saline with Tween-80 123 % of control | [1] 118 % of control | dose: 132.0 mg/kg/injection, schedule: Q04DX003 (ip), vehicle: saline with Tween-80 123 % of control | [2] 90 % of control | [3] 114 % of control | dose: 300.0 mg/kg/injection, schedule: Q04DX003 (ip), vehicle: saline with Tween-80 123 % of control | dose: 400.0 mg/kg/injection, schedule: Q01DX009 (ip), vehicle: saline with Tween-80 100 % of control | [4] 109 % of control

C=Cn1c([N+](=O)[O-])cnc1/C=C/c1ccc(C(=O)NC)cc1
inactive: dose: 100.0 mg/kg/injection, schedule: Q04DX002 (ip), vehicle: saline with Tween-80 100 % of control | dose: 200.0 mg/kg/injection, schedule: Q04DX002 (ip), vehicle: saline with Tween-80 102 % of control | dose: 400.0 mg/kg/injection, schedule: Q04DX002 (ip), vehicle: saline with Tween-80 95 % of control

Nc1nc2c(ccc3ccccc32)s1
inactive: [5] 115 % of control | [6] 102 % of control and 108 % of control and 97 % of control | [1] 100 % of control and 110 % of control and 93 % of control | [2] 103 % of control and 108 % of control and 93 % of control

CCn1c2ccc(N(C)C)cc2c2cc(N(C)C)ccc21
inactive: [7] 99 % of control | [8] 105 % of control | [9] 102 % of control

Nc1ccccc1C(=O)On1nnc2ccccc2c1=O
inactive: dose: 100.0 mg/kg/injection, schedule: Q01DX001 (ip), vehicle: Klucel (hydroxypropylcellulose) (HPC) 103 % of control | dose: 200.0 mg/kg/injection, schedule: Q01DX001 (ip), vehicle: Klucel (hydroxypropylcellulose) (HPC) 103 % of control | dose: 400.0 mg/kg/injection, schedule: Q01DX001 (ip), vehicle: Klucel (hydroxypropylcellulose) (HPC) 100 % of control

CN=C(N)NN=C(c1ccc(Br)cc1)c1ccc(Br)cc1
inactive: dose: 25.0 mg/kg/injection, schedule: Q04DX002 (ip), vehicle: saline with Tween-80 100 % of control and 106 % of control | dose: 50.0 mg/kg/injection, schedule: Q04DX002 (ip), vehicle: saline with Tween-80 103 % of control and 124 % of control

O=C(Nc1ccc(F)cc1)N1CCOCC1
inactive: [7] 98 % of control | [8] 93 % of control | [9] 93 % of control

O=C1c2ccccc2CC12OC2c1ccncc1 (centres undefined)
inactive: [10] 104 % of control | [11] 100 % of control | [12] 106 % of control

O=C(O)c1cccc(-c2c3ccc(=O)cc-3oc3cc(O)ccc23)c1
inactive: [13] 104 % of control | [14] 113 % of control | [15] 110 % of control

COc1ccc(/C=C/C(=O)c2ccc(OC)c(OC)c2)cc1OC
inactive: dose: 100.0 mg/kg/injection, schedule: Q04DX003 (ip), vehicle: saline with Tween-80 90 % of control | [3] 95 % of control | [4] 95 % of control

O=C(O)C(CCc1nc2ccccc2[nH]1)NS(=O)(=O)c1ccccc1 (centres undefined)
inactive: dose: 12.5 mg/kg/injection, schedule: Q01DX009 (ip), vehicle: saline with Tween-80 115 % of control | [5] 95 % of control | [6] 103 % of control and 91 % of control | [1] 102 % of control | [2] 102 % of control

OCCn1nc2c(c1-c1ccccn1)CCCc1ccccc1-2
inactive: dose: 100.0 mg/kg/injection, schedule: Q04DX002 (ip), vehicle: gum acacia 104 % of control | dose: 200.0 mg/kg/injection, schedule: Q04DX002 (ip), vehicle: gum acacia 97 % of control | dose: 400.0 mg/kg/injection, schedule: Q04DX002 (ip), vehicle: gum acacia 92 % of control

CCC(=O)c1c(O)c2ccccc2oc1=O
inactive: dose: 15.0 mg/kg/injection, schedule: Q01DX005 (ip), vehicle: saline with Tween-80 104 % of control | dose: 30.0 mg/kg/injection, schedule: Q01DX005 (ip), vehicle: saline with Tween-80 107 % of control | [7] 104 % of control

O=C(CNC(=O)c1ccccc1)N/N=C/c1ccco1
inactive: [7] 95 % of control | [8] 101 % of control | [9] 100 % of control

COC(=O)C1CCC2C(C1)OC1(CC(OC(=O)/C=C\c3ccccc3)C(C)CO1)C2(O)CO (centres undefined)
inactive: dose: 5.0 mg/kg/injection, schedule: Q01DX009 (ip), vehicle: saline + alcohol 98 % of control | dose: 10.0 mg/kg/injection, schedule: Q01DX009 (ip), vehicle: saline + alcohol 103 % of control | dose: 20.0 mg/kg/injection, schedule: Q01DX009 (ip), vehicle: saline + alcohol 105 % of control | dose: 40.0 mg/kg/injection, schedule: Q01DX009 (ip), vehicle: saline + alcohol 105 % of control

Nc1nnc(COc2ccc(Cl)cc2)n1N
inactive: [7] 107 % of control | [8] 108 % of control

CCCCCCOC(=O)c1ccccc1NC(=O)NN1CCCCCC1
inactive: [16] 100 % of control | [17] 102 % of control | [18] 100 % of control

CC1=CC(=O)C2(OC3OC(C)C(O)C(O)C3O)C=COC(OC3OC(CO)C(O)C(O)C3O)C12 (centres undefined)
inactive: dose: 12.5 mg/kg/injection, schedule: Q01DX005 (ip), vehicle: Klucel (hydroxypropylcellulose) (HPC) 98 % of control | dose: 25.0 mg/kg/injection, schedule: Q01DX005 (ip), vehicle: Klucel (hydroxypropylcellulose) (HPC) 95 % of control | [16] 95 % of control | [17] 95 % of control | [18] 95 % of control

COc1cccc(OC)c1SSCCN
inactive: dose: 100.0 mg/kg/injection, schedule: Q04DX002 (ip), vehicle: suspension in saline 107 % of control | dose: 200.0 mg/kg/injection, schedule: Q04DX002 (ip), vehicle: suspension in saline 111 % of control

CC1(C)CC(=O)C(CC(=O)c2ccccc2)=C(NN=C(N)N)C1
inactive: dose: 50.0 mg/kg/injection, schedule: Q01DX009 (ip), vehicle: Klucel (hydroxypropylcellulose) (HPC) 101 % of control | dose: 100.0 mg/kg/injection, schedule: Q01DX009 (ip), vehicle: Klucel (hydroxypropylcellulose) (HPC) 100 % of control | dose: 200.0 mg/kg/injection, schedule: Q01DX009 (ip), vehicle: Klucel (hydroxypropylcellulose) (HPC) 91 % of control

CCN(CC)Cc1c(C)[nH]c2ccc3c(c2c1=O)Oc1ccccc1O3
inactive: [10] 100 % of control | [11] 100 % of control | [12] 100 % of control

O=C1CSC(=S)N1c1ccccc1C(F)(F)F
inactive: dose: 50.0 mg/kg/injection, schedule: Q01DX009 (ip), vehicle: suspension in saline 91 % of control | dose: 100.0 mg/kg/injection, schedule: Q01DX009 (ip), vehicle: suspension in saline 96 % of control | dose: 200.0 mg/kg/injection, schedule: Q01DX009 (ip), vehicle: suspension in saline 93 % of control

C[n+]1c2ccccc2c(Oc2c3ccccc3[n+](C)c3ccccc23)c2ccccc21
inactive: [13] 91 % of control | [14] 93 % of control | [15] 100 % of control

CCN(CC)C(C)(C)C(=O)/C=C/c1ccc(Cl)cc1
inactive: dose: 60.0 mg/kg/injection, schedule: Q01DX005 (ip), vehicle: saline 115 % of control | dose: 120.0 mg/kg/injection, schedule: Q01DX005 (ip), vehicle: saline 101 % of control
